Legend:
[1] = log P (literature); format: physicochemical; settings: from benzene to pyridine N-oxide
[2] = test system: strychnine-insensitive glycine sites associated with NMDA receptors; settings: cited from earlier work

Structure (SMILES) | difference in log P [1] | inhibition of [3H]glycine binding [2]
[O-][n+]1ccccc1 [pyridine N-oxide] | -3.84 | –
Oc1nc2cccnc2nc1O [pyrido (2,3-b)pyrazine-2,3-diol] | – | active inhibitor
